According to patent publication US5792831A, “Analogues of magainin peptides containing D-amino acids” (priority 1994, dated 1998):
Values after ≈ are worked out from the molar mass of the structure shown. Square brackets hold non-standard residues; d marks the D form. Ends that are not written are not given here. Peptide text beside a SMILES is read from it. * marks the point of attachment. Octanoyl = CCCCCCCC(=O)*

Columns and labels:
Type in all cases: cell-based
melanoma cell line WM8 = experiment: 3H-thymidine radioactive counts, melanoma cells (Example 6); details: 2% tumor media
melanoma cell line WM115 = experiment: as above; details: 2% tumor media
melanoma cell line WM973 = experiment: as above; details: 2% tumor media
[1] = tested on: melanoma cell line WM1791A; experiment: as above; details: 2% tumor media
[2] = tested on: melanoma cell line WM1366; experiment: as above; details: 2% tumor media
melanoma cell line WM852 = experiment: as above; details: 2% tumor media
melanoma cell line WM35 = experiment: as above; details: 2% tumor media
[3] = tested on: WM1158 (metastatic melanoma); experiment: Melanoma growth reduction, 3H-thymidine incorporation (Example 4); details: 2% tumor medium
Experimental: (§1) Melanoma cell lines WM-239-A (metastatic melanoma), WM278 (primary melanoma), WM793 (primary melanoma) and WM1158 (metastatic melanoma) were seeded in 24-well plates at a concentration of 7.5×10^4 cells/ml containing 2% tumor medium.
(§2) Peptides (SEQ ID NO:6) and D-(SEQ ID NO:6), in which each amino acid residue is a D-amino residue or a glycine residue, were frozen at -20° C. in […] aliquots at a concentration of 25 mg/ml. Each peptide was then dissolved in sterile distilled water at a dilution of 1:1,000 or 1:5,000 to provide peptide concentrations of 25 μg/ml or 5 μg/ml, respectively. The peptides at the 25 μg/ml or 5 μg/ml concentrations were then added to the plates containing the melanoma cells. The amount of ^3 H-thymidine incorporation for each well was taken on days 1, 3, and 7.

WM278 (primary melanoma) = experiment: as above; details: 2% tumor medium
Experimental: as §1, §2

WM793 (primary melanoma) = experiment: as above; details: 2% tumor medium
Experimental: as §1, §2

[4] = tested on: WM-239-A (metastatic melanoma); experiment: as above; details: 2% tumor medium
Experimental: as §1, §2

[5] = tested on: melanoma cell line SkMe123; experiment: 3H-thymidine radioactive counts, melanoma cells (Example 6); details: 2% tumor media
melanoma cell line WM39 = experiment: as above; details: 2% tumor media
melanoma cell line WM164 = experiment: as above; details: 2% tumor media
[6] = tested on: melanoma cell line WM983A; experiment: as above; details: 2% tumor media
[7] = tested on: melanoma cell line WM239A; experiment: as above; details: 2% tumor media
[8] = tested on: melanoma cell line WM983B; experiment: as above; details: 2% tumor media
[9] = tested on: melanoma cell line WM1158; experiment: as above; details: 2% tumor media
[10] = tested on: melanoma cell line WM902B; experiment: as above; details: 2% tumor media
S. aureus ATCC 25923 = experiment: Antibacterial MIC assay, microtiter broth dilution (NCCLS M7-T2); details: Mueller Hinton broth, 16-20 hours at 37° C.
Experimental: (§3) The procedure for the following antibacterial assay is based upon the guidelines of the National Committee for Clinical Laboratory Standards, Document M7-T2, Volume 8, No. 8, 1988.
(§4) were prepared at a concentration of 512 μpg/ml in sterile deionized distilled water and stored at -70° C.
(§5) 1.5×10^5 CFUs/ml of either S. aureus ATCC 25923, E. coli ATCC 25922, P. aeruginosa ATCC 27853, or C. albicans were added to the wells in full strength Mueller Hinton broth (BBL 11443) from a mid-log culture. The inoculums are standarized spectrophotometrically at 600 nm and is verified by colony counts. The plates are incubated for 16-20hours at 37° C., and the minimal inhibitory concentration (MIC) for each peptide is determined. Minimal inhibitory concentration is defined as the lowest concentration of peptide which produces a clear well in the microtiter plate.

P. aeruginosa ATCC 27853 = experiment: as above; details: Mueller Hinton broth, 16-20 hours at 37° C.
Experimental: as §3, §4, §5

E. coli ATCC 25922 = experiment: as above; details: Mueller Hinton broth, 16-20 hours at 37° C.
Experimental: as §3, §4, §5

C. albicans = experiment: MIC assay, microtiter broth dilution (NCCLS M7-T2); details: Mueller Hinton broth, 16-20 hours at 37° C.
Experimental: as §3, §4, §5

For “D-(SEQ ID NO:6): each amino acid residue is a D-amino residue or a glycine residue; possibly the same as D-(SEQ ID NO:6)-NH2 (G[dI]G[dK][dF][dL][dK][dS][dA][dK][dK][dF]G[dK][dA][dF][dV][dK][dI][dL][dN][dS]; not fully specified)”, the “Radioactive Counts WM8” value (melanoma cell line WM8; dose 1 μg/ml) was 19226, the “Radioactive Counts WM8” value (melanoma cell line WM8; dose 5 μg/ml) was 248 and the “Radioactive Counts WM8” value (melanoma cell line WM8; dose 25 μg/ml) was 99. The “Radioactive Counts WM115” value (melanoma cell line WM115; dose 1 μg/ml) was 222000, the “Radioactive Counts WM115” value (melanoma cell line WM115; dose 5 μg/ml) was 373 and the “Radioactive Counts WM115” value (melanoma cell line WM115; dose 25 μg/ml) was 263. For the same molecule, the “Radioactive Counts WM973” value (melanoma cell line WM973; dose 1 μg/ml) was 81675, the “Radioactive Counts WM973” value (melanoma cell line WM973; dose 5 μg/ml) was 7284 and the “Radioactive Counts WM973” value (melanoma cell line WM973; dose 25 μg/ml) was 770. The “Radioactive Counts WM1791A” value ([1]; dose 1 μg/ml) was 5655, the “Radioactive Counts WM1791A” value ([1]; dose 5 μg/ml) was 1065 and the “Radioactive Counts WM1791A” value ([1]; dose 25 μg/ml) was 456. For the same molecule, the “Radioactive Counts WM1366” value ([2]; dose 1 μg/ml) was 288000, the “Radioactive Counts WM1366” value ([2]; dose 5 μg/ml) was 1910 and the “Radioactive Counts WM1366” value ([2]; dose 25 μg/ml) was 1692. For the same molecule, the “Radioactive Counts WM852” value (melanoma cell line WM852; dose 1 μg/ml) was 169000, the “Radioactive Counts WM852” value (melanoma cell line WM852; dose 5 μg/ml) was 2699 and the “Radioactive Counts WM852” value (melanoma cell line WM852; dose 25 μg/ml) was 554. The “Radioactive Counts WM35” value (melanoma cell line WM35; dose 1 μg/ml) was 47241, the “Radioactive Counts WM35” value (melanoma cell line WM35; dose 5 μg/ml) was 3187 and the “Radioactive Counts WM35” value (melanoma cell line WM35; dose 25 μg/ml) was 360. The “% Growth Reduction (7 days) WM1158” value ([3]; dose 5 μg/ml) was 98.0%, the “% Growth Reduction (7 days) WM1158” value ([3]; dose 25 μg/ml) was 98.8% and the “% Growth Reduction (7 days) WM-278” value (WM278 (primary melanoma); dose 5 μg/ml) was 93.1%. The “% Growth Reduction (7 days) WM-278” value (WM278 (primary melanoma); dose 25 μg/ml) was 96.1%, the “% Growth Reduction (7 days) WM793” value (WM793 (primary melanoma); dose 5 μg/ml) was 95.6% and the “% Growth Reduction (7 days) WM793” value (WM793 (primary melanoma); dose 25 μg/ml) was 98.4%. For the same molecule, the “% Growth Reduction (7 days) WM239-A” value ([4]; dose 5 μg/ml) was 82.0%, the “% Growth Reduction (7 days) WM239-A” value ([4]; dose 25 μg/ml) was 96.3% and the “Radioactive Counts SkMe123” value ([5]; dose 1 μg/ml) was 114846. The “Radioactive Counts SkMe123” value ([5]; dose 5 μg/ml) was 2028, the “Radioactive Counts SkMe123” value ([5]; dose 25 μg/ml) was 429 and the “Radioactive Counts WM39” value (melanoma cell line WM39; dose 1 μg/ml) was 27635. The “Radioactive Counts WM39” value (melanoma cell line WM39; dose 5 μg/ml) was 1308, the “Radioactive Counts WM39” value (melanoma cell line WM39; dose 25 μg/ml) was 273 and the “Radioactive Counts WM164” value (melanoma cell line WM164; dose 1 μg/ml) was 158000. For the same molecule, the “Radioactive Counts WM164” value (melanoma cell line WM164; dose 5 μg/ml) was 4143, the “Radioactive Counts WM164” value (melanoma cell line WM164; dose 25 μg/ml) was 331 and the “Radioactive Counts WM983A” value ([6]; dose 1 μg/ml) was 335000. For the same molecule, the “Radioactive Counts WM983A” value ([6]; dose 5 μg/ml) was 5598, the “Radioactive Counts WM983A” value ([6]; dose 25 μg/ml) was 313 and the “Radioactive Counts WM239A” value ([7]; dose 1 μg/ml) was 38053. For the same molecule, the “Radioactive Counts WM239A” value ([7]; dose 5 μg/ml) was 221, the “Radioactive Counts WM239A” value ([7]; dose 25 μg/ml) was 459 and the “Radioactive Counts WM983B” value ([8]; dose 1 μg/ml) was 225000. For the same molecule, the “Radioactive Counts WM983B” value ([8]; dose 5 μg/ml) was 135, the “Radioactive Counts WM983B” value ([8]; dose 25 μg/ml) was 115 and the “Radioactive Counts WM1158” value ([9]; dose 1 μg/ml) was 131000. For the same molecule, the “Radioactive Counts WM1158” value ([9]; dose 5 μg/ml) was 884, the “Radioactive Counts WM1158” value ([9]; dose 25 μg/ml) was 2108 and the “Radioactive Counts WM902B” value ([10]; dose 1 μg/ml) was 49299. For the same molecule, the “Radioactive Counts WM902B” value ([10]; dose 5 μg/ml) was 150 and the “Radioactive Counts WM902B” value ([10]; dose 25 μg/ml) was 75.

With `CCCCCCCC(=O)N[C@H](CC(C)C)C(=O)N[C@H](CCCCN)C(=O)N[C@H](CCCCN)C(=O)N[C@H](CC(C)C)C(=O)N[C@H](CC(C)C)C(=O)N[C@H](CCCCN)C(=O)N[C@H](CCCCN)C(=O)N[C@H](CC(C)C)C(=O)N[C@H](CCCCN)C(=O)N[C@H](CCCCN)C(=O)N[C@H](CC(C)C)C(N)=O` [Oct-D-(SEQ ID NO:11)-NH2] (Octanoyl-[dL][dK][dK][dL][dL][dK][dK][dL][dK][dK][dL]-NH2) the “MIC S. aureus” value (S. aureus ATCC 25923) was 4 µg/mL (≈ 2.71 µM), the “MIC P. aeruginosa” value (P. aeruginosa ATCC 27853) was 4 µg/mL (≈ 2.71 µM) and the “MIC E. coli” value (E. coli ATCC 25922) was 8 µg/mL (≈ 5.41 µM). For the same molecule, the “MIC C. albicans” value (C. albicans) was 32 µg/mL (≈ 21.6 µM).

`CCCCCCCC(=O)N[C@@H](CC(C)C)C(=O)N[C@@H](CCCCN)C(=O)N[C@@H](CCCCN)C(=O)N[C@@H](CC(C)C)C(=O)N[C@@H](CC(C)C)C(=O)N[C@@H](CCCCN)C(=O)N[C@@H](CCCCN)C(=O)N[C@@H](CC(C)C)C(=O)N[C@@H](CCCCN)C(=O)N[C@@H](CCCCN)C(=O)N[C@@H](CC(C)C)C(N)=O` [Oct-(SEQ ID NO:11)-NH2, reference compound] (Octanoyl-LKKLLKKLKKL-NH2) was tested, and the “MIC S. aureus” value (S. aureus ATCC 25923) was 4 µg/mL (≈ 2.71 µM), the “MIC P. aeruginosa” value (P. aeruginosa ATCC 27853) was 4 µg/mL (≈ 2.71 µM) and the “MIC E. coli” value (E. coli ATCC 25922) was 8 µg/mL (≈ 5.41 µM). The “MIC C. albicans” value (C. albicans) was 32 µg/mL (≈ 21.6 µM).
